Laboratory results reported in patent publication US11149292B2, “Processes for the preparation of (R)-2-(7-(4-cyclopentyl-3-(trifluoromethyl)benzyloxy)-1,2,3,4-tetrahydrocyclopenta[B]indol-3-yl)acetic acid and salts thereof” (Arena Pharmaceuticals, Inc., priority 2010, dated 2021).

How the values were obtained:
[1] = biological target: S1P1 receptor (Homo sapiens (Human), UniProt P21453); experiment: HTRF assay for direct cAMP measurement in recombinant CHO-K1 cells stably transfected with S1P1; type: cell-based
Text: CHO-K1 cells were obtained from ATCC® (Manassas, Va.; Catalog #CCL-61). […] The HTRF® assay has been used to determine EC50 values for S1P1 receptor agonists.
HTRF® assay kit was purchased from Cisbio-US, Inc. (Bedford, Mass.; Catalog #62AM4PEC). The HTRF® assay supported by the kit is a competitive immunoassay between endogenous cAMP produced by the CHO-K1 cells and tracer cAMP labeled with the dye d2. The tracer binding is visualized by a monoclonal anti-cAMP antibody labeled with Cryptate. The specific signal (i.e., fluorescence resonance energy transfer, FRET) is inversely proportional to the concentration of unlabeled cAMP in the standard or sample.
The fluorescence ratio (665 nm/620 nm) of the standards (0.17 to 712 nM cAMP) included in the assay was calculated and used to generate a cAMP standard curve according to the kit manufacturer's instructions. The fluorescence ratio of the samples (test compound or compound buffer) was calculated and used to deduce respective cAMP concentrations by reference to the cAMP standard curve.
The HTRF® assay was carried out using a two-step protocol essentially according to the kit manufacturer's instructions, in […] total volume per well in 384-well plate format (ProxiPlates; PerkinElmer, Fremont, Calif.; catalog #6008280). […] The plate was then further incubated at room temperature for 1 hour, after which the assay plate was read. […]

[2] = test system: Male BALB/c mice; experiment: Mouse Peripheral Lymphocyte Lowering (PLL) assay; type: in vivo; settings: 1.00 mg/kg oral dose; blood at 5 hours post-dose; FIG. 1
Description: Male BALB/c mice (Charles River Laboratories, Wilmington, Mass.) were housed four per cage and maintained in a humidity-controlled (40 to 60%) and temperature-controlled (68 to 72° F.) facility on a 12 h:12 h light/dark cycle (lights on at 6:30 am) with free access to food (Harlan Teklad, Orange, Calif., Rodent Diet 8604) and water. Mice were allowed one week of habituation to the animal facility before testing. PLL Assay: […] Peripheral blood samples were collected at 5 hours post-dose. The mice were anesthetized with isoflurane and blood was collected via cardiac puncture. A complete cell count (CBC), including lymphocyte count, was obtained using a CELL-DYN® 3700 (Abbott Laboratories, Abbott Park, Ill.) instrument. Results are presented in FIG. 1, in which peripheral blood lymphocyte (PBL) count is shown for the 5 hour group.

[3] = test system: Male Sprague-Dawley rats; experiment: Rat Peripheral Lymphocyte Lowering (PLL) assay; type: in vivo; settings: 1.00 mg/kg oral dose; blood at 5 hours post-dose; FIG. 2
Description: Male Sprague-Dawley rats (7 weeks of age at start of study) (Charles River Laboratories) were housed two per cage and maintained in a humidity-controlled (40-60%) and temperature-controlled (68-72° F.) facility on a 12 h:12 h light/dark cycle (lights on at 6:30 am) with free access to food (Harlan Teklad, Orange, Calif., Rodent Diet 8604) and water. Rats were allowed one week of habituation to the animal facility before testing. […] Peripheral blood samples were collected at 5 hours post-dose. Blood was collected via indwelling catheter. A complete cell count (CBC), including lymphocyte count, was obtained using a CELL-DYN® 3700 (Abbott Laboratories, Abbott Park, Ill.) instrument. Results are presented in FIG. 2, in which peripheral blood lymphocyte (PBL) count is shown for the 5 hour group.

[4] = test system: Female Lewis rats; experiment: Collagen-induced arthritis rat model; type: in vivo; settings: 0.3, 1 and 3 mg/kg p.o., q.d., day 0 to day 16; FIG. 3
Description: Female Lewis rats were used in this study. Acclimated animals were anesthetized with isoflurane and given the first collagen injection (day 0). On day 6, they were anesthetized again for the second collagen injection. Collagen was prepared by making a 4 mg/mL solution in 0.01 N acetic acid. Equal volumes of collagen and incomplete Freund's adjuvant were emulsified by hand mixing until a bead of this material held its form when placed in water. Each animal received 300 μL of the mixture each time, spread over 3 subcutaneous sites on the back. Treatment (p.o., q.d., 5 mL/kg dosing volume) began on day 0 and continued through day 16 with vehicle or compounds given at 24 h intervals. Rats were weighed on days 0, 3, 6 and 9 through 17 and caliper measurements of the ankles taken on days 9 through 17.

[5] = test system: Female C57BL/6 mice; experiment: MOG-induced experimental autoimmune encephalomyelitis (EAE) in mice; type: in vivo, mouse; settings: 0.3, 1 and 3 mg/kg orally once a day from day 3 until day 21; FIG. 4
[6] = test system: Male Sprague-Dawley rats; experiment: Cardiac telemetry in the rat (exemplary bradycardia assay); type: in vivo; settings: oral, vehicle PEG400; heart rate measured over a 120 min period
Description: Male Sprague-Dawley rats (250-300 g at time of surgery) were implanted by Charles River Laboratories (Wilmington, Mass.) with cardiac transmitting devices (Data Sciences PhysioTel C50-PXT) into the peritoneal space, with a pressure-sensing catheter inserted into the descending aorta. Rats are allowed at least one week to recover. Rats were housed in individual cages and maintained in a humidity-controlled (30-70%) and temperature-controlled (20-22° C.) facility on a 12 h:12 h light/dark cycle (lights on at 7:00 am) with free access to food (Harlan-Teklad, Orange, Calif., Rodent Diet 8604) and water. Rats were allowed one week of habituation to the animal facility before testing.
The implanted transmitting devices transmitted continuous measurements of blood pressure (systolic, diastolic, mean arterial, pulse), heart rate, body temperature, and motor activity in freely moving conscious animals. […] Telemetry recording occurred over a 21-h period, starting at noon and continuing until 9:00 am the following day. […]
By way of illustration and not limitation, the rats were administered vehicle (PEG 400) and (R)-2-(7-(4-cyclopentyl-3-(trifluoromethyl)benzyloxy)-1,2,3,4-tetrahydrocyclopenta[b]indol-3-yl)acetic acid and heart rate was then measured over a 120 min period.

S1P1 receptor, sequence (P21453 whole entry): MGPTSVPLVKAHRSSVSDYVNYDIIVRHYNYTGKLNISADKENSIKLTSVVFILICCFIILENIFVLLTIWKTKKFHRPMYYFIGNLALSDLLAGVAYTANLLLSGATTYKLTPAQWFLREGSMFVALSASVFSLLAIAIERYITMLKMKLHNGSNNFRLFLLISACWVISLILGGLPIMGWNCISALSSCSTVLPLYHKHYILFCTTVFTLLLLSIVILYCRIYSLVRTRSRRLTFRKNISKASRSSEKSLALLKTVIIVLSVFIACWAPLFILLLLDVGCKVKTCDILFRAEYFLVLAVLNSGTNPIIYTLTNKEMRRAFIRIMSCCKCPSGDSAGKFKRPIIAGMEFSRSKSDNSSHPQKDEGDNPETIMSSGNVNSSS

Q: How did the “S1P1 receptor agonism (decrease of cAMP concentration)” value [1] turn out when `O=C(O)C[C@H]1CCc2c1[nH]c1ccc(OCc3ccc(C4CCCC4)c(C(F)(F)F)c3)cc21` [(R)-2-(7-(4-cyclopentyl-3-(trifluoromethyl)benzyloxy)-1,2,3,4-tetrahydrocyclopenta[b]indol-3-yl)acetic acid] was run?
A: agonist of the S1P1 receptor

Q: And the “peripheral blood lymphocyte (PBL) count lowering vs vehicle” value [2]?
A: exhibited activity for inducing PBL lowering (lymphopenia)

Q: What about the “peripheral blood lymphocyte (PBL) count lowering vs vehicle” value [3] of the same compound?
A: exhibited activity for inducing PBL lowering (lymphopenia)

Q: And the “reduction of mean ankle diameter” value [4]?
A: exhibited activity for reducing mean ankle diameter

Q: And the “reduction of severity of disease symptoms (clinical score) in EAE” value [5]?
A: exhibited activity in the mouse EAE assay

Q: And the “reduction of heart rate (bradycardia) vs vehicle” value [6]?
A: no or substantially no reduction of heart rate
